# Data published in US6521222B1, “Inorganic/organic complexes for reducing skin irritation” (Societe L'Oreal S.A., priority 1999, dated 2003).
# What was measured:
# [1] = tested on: keratinocytes of Episkin human epidermis reconstituted in vitro; assay: Cytotoxicity (MTT test) on Episkin reconstructed skin after applying compositions; type: cell-based; conditions: 0.3% (w/V) 5-n-octanoylsalicylic acid added to composition A
# Method: (§1) The Episkin system is a model of human epidermis reconstituted in vitro, which was manufactured by the company Episkin. The epidermis contained only one cell type: keratinocytes. The keratinocytes were seeded onto a dermis equivalent which was composed of various types of collagen.
# (§2) After a period of proliferation of the keratinocytes immersed in the culture medium, the system was raised up to the air/liquid interface.
# (§3) The assignee hereof has studied the cytotoxicity of the keratinocytes (3-(4,5-dimethylthiazol-2-yl)-2,5-diphenyltetrazolium bromide test) after applying to this reconstructed skin model various compositions in a proportion of 150 mg/cm^2, and maintaining same in an incubator at 37° C./5% CO2 for a period of 18 hours. Each composition was tested on two epidermides of 1.13 cm^2.
# (§4) The basic composition A was:
# (§5) The other compositions tested corresponded to this composition A to which 5-n-octanoylsalicylic acid, alone or in admixture with a compound of formula (I) according to the invention, was added.
# (§6) The measurement of cell viability was carried out immediately after rinsing of the compositions with phosphate buffered saline (PBS).
# [2] = as above; type: cell-based, human; conditions: human; composition A + 0.5% (w/V) 5-n-octanoylsalicylic acid, no compound of formula (I); 150 mg/cm^2, 18 hours, 37° C./5% CO2; read-out: % of cell viability
# Method: as §1, §2, §3, §4, §5, §6
structure (smiles),measurement,setting,value
CCCCCCCC(=O)c1ccc(O)c(C(=O)O)c1 [5-n-octanoylsalicylic acid],cytotoxicity of the composition,[1],cytotoxic
same,"viability at 18 h, 0.5 % (w/V)",[2],7.8%
